# US8809627B2, “Plant isoflavone and isoflavanone O-methyltransferase genes” (The Samuel Roberts Noble Foundation, Inc., priority 2006, dated 2014)
# Where no end group is shown, it is not given here.
# Experiments:
# [1] = target: T1, MtIOMT5 (Medicago truncatula, UniProt Q29U70); assay: OMT assays with purified recombinant MtIOMT5 (relative activity; HPLC/MS of products); type: biochemical; conditions: for Position of methylation / reaction products, MtIOMT5: HPLC against standards, tandem MS
# T1 construct: His-tag (N); made in house; host or cells: E. coli BL21(DE3)
# T1 sequence (Q29U70 1-364): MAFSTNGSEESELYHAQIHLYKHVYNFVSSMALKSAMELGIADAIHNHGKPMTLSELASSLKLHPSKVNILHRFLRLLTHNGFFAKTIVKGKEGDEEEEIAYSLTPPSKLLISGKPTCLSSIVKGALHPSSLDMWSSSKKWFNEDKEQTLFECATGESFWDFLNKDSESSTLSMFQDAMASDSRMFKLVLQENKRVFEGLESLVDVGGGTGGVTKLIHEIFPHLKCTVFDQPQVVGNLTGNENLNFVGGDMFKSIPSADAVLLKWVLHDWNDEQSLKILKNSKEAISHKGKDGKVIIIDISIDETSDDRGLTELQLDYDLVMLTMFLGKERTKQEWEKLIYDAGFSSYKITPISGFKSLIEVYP
# From the text: (§1) Cloning of MtIOMT5 (corresponding to TC 100926, TIGR MtGI v.8) was as described previously (Liu et al., 2005). To obtain a full-length cDNA for MtIOMT2, specific primers designed based upon the M. truncatula genomic sequence were used to amplify the MtIOMT2 coding sequence from M. truncatula root cDNA. The amplified product was cloned into the pGEM®-T easy vector (Promega, Madison Wis.) and sequenced to confirm its identity. MtIOMTs were cloned into the pET28a vector (EMD Biosciences, Inc., San Diego, Calif.) using PCR-based amplification with primers designed to introduce EcoRI and XhoI restriction sites; BamHI and XhoI sites were used for cloning MtIOMT6 due to the presence of an internal EcoRI site in this particular cDNA. Because the EST for MtIOMT8 was missing a start codon, the primer designed to clone MtIOMT8 into pET28a contained an additional 2-nucleotide insertion to generate an ATG start site. All MtIOMTs were expressed as translational fusions to an N-terminal His-tag. Expression of MtIOMTs in E. coli BL21(DE3) and purification by Ni^2+-NTA chromatography were as described (Zubieta et al., 2001). Proteins were dialyzed against 20 mM Tris pH 8.0, 100 mM NaCl, 10% (v/v) glycerol, and 14 mM β-mercaptoethanol. Protein concentration was determined by Bradford assay using BSA as a standard (Bradford, 1976).
# (§2) Reactions (200 μl) were performed in 0.1 M potassium phosphate, pH 7.4, 10% (w/v) sucrose, 14 mM β-mercaptoethanol with 10 μM protein, 0.5 mM S-adenosyl-L-methionine, and 80 μM phenolic substrates. All substrates were purchased from Indofine (Hillsborough, N.J.) except 6,7-dihydroxy-4′-methoxyisoflavone, dihydrodaidzein, and vestitol, which were purchased from Apin (Oxfordshire, UK). […] OMT assays were incubated at 30° C. for 2 h and extracted with ethyl acetate. Ethyl acetate extracts were dried under N2 and the resultant material was resuspended in 50-100 μl of methanol. Samples were analyzed on an Agilent 1100 HPLC, equipped with a quaternary pump (model #G1311A), a degasser (model #G1322A), an autosampler (model #G1313A), and a diode array detector (model #G1315A). Samples of 20 μl were applied to an ODS2 reverse-phase column (5 μm particle size, 4.6×250 mm) and eluted in 1% (v/v) phosphoric acid with an increasing gradient of acetonitrile (0-5 min, 25%; 5-35 min, 25-50%; 35-39 min, 50-100%) at a flow rate of 1 ml/min. To resolve the 4′-O-methylated and 7-O-methylated products of genistein, samples were applied to a Phenomenex SYNERGI Polar-RP 80 Å column (4 μm particle size, 4.6×250 mm) and eluted in water with an increasing gradient of acetonitrile (0-5 min, 20%; 5-17 min, 20-38%; 17-33 min, 38%; 33-45 min, 38-56%; 45-46 min, 56-100%) at a flow rate of 1 ml/min. Chiral chromatography was performed as described (Liu et al., 2005).
# (§3) For determination of specific activities, reactions (100 μl) were performed in 0.1 M potassium phosphate, pH 7.4, 10% (w/v) sucrose, 14 mM β-mercaptoethanol with 0.2-μg protein, 50 μM S-adenosyl-L-methionine (0.025 μCi ^14C-SAM per reaction), and 100 μM substrate. Reactions were incubated at 30° C. for 15-25 min and stopped by addition of 4 μl of 1N HCl. Products were extracted into 500 μl of ethyl acetate and 400 μl was used for liquid scintillation counting.
# An HP 1100 series II LC system (Hewlett-Packard, Palo Alto, Calif.) with a photodiode array detector was coupled to a Bruker Esquire ion-trap mass spectrometer (ITMS) equipped with an electrospray ionization source. A reverse phase, C18, 5 μm, 4.6×250 mm column (J. T. Baker, Phillipsburg, N.J.) was used for separations. The mobile phase consisted of 0.1% (v/v) acetic acid using linear gradients of 5-90% acetonitrile (v/v) in 70 min. The flow rate was 0.8 ml/min, and the temperature of the column was kept at 28° C. Both positive- and negative-ion mass spectra were acquired. […]
# [2] = test system: MtIOMT7; assay: OMT assays with purified recombinant MtIOMT7 (relative activity; HPLC/MS of products); type: biochemical, Medicago truncatula; conditions: 50 μM S-adenosyl methionine, 100 μM acceptor substrate; most converted substrate = 100%
# From the text: as §1, §2, §3
# An HP 1100 series II LC system (Hewlett-Packard, Palo Alto, Calif.) with a photodiode array detector was coupled to a Bruker Esquire ion-trap mass spectrometer (ITMS) equipped with an electrospray ionization source. A reverse phase, C18, 5 μm, 4.6×250 mm column (J. T. Baker, Phillipsburg, N.J.) was used for separations. The mobile phase consisted of 0.1% (v/v) acetic acid using linear gradients of 5-90% acetonitrile (v/v) in 70 min. The flow rate was 0.8 ml/min, and the temperature of the column was kept at 28° C. Both positive- and negative-ion mass spectra were acquired.
# [3] = target: T2, MsI7OMT (Medicago sativa, UniProt O24529); conditions: reported by He et al., 1998; cited from earlier work
# T2 sequence (O24529 1-352): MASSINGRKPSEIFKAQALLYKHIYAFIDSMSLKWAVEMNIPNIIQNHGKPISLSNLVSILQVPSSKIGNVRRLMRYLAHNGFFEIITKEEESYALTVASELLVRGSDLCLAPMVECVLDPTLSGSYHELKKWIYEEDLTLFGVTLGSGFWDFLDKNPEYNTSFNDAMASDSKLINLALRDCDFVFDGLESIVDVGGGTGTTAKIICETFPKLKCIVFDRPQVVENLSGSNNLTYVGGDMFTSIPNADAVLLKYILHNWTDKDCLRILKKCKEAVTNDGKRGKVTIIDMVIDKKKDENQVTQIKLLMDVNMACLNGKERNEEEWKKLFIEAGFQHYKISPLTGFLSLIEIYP
# [4] = Quantification of methylated products in reactions with dihydrodaidzein; type: biochemical
# Description: as §2
# An HP 1100 series II LC system (Hewlett-Packard, Palo Alto, Calif.) with a photodiode array detector was coupled to a Bruker Esquire ion-trap mass spectrometer (ITMS) equipped with an electrospray ionization source. A reverse phase, C18, 5 μm, 4.6×250 mm column (J. T. Baker, Phillipsburg, N.J.) was used for separations. The mobile phase consisted of 0.1% (v/v) acetic acid using linear gradients of 5-90% acetonitrile (v/v) in 70 min. The flow rate was 0.8 ml/min, and the temperature of the column was kept at 28° C. Both positive- and negative-ion mass spectra were acquired. Positive-ion ESI was performed using an ion source voltage of 4.0 KV and a capillary offset voltage of 86.0 V. Nebulization was aided with a coaxial nitrogen sheath gas provided at a pressure of 60 psi. Desolvation was aided using a counter current nitrogen flow set at a pressure of 12 psi and a capillary temperature of 300° C. Mass spectra were recorded over the range 50-2200 m/z. The ITMS was operated under an ion current control of approximately 10,000 with a maximum acquire time of 100 ms. Tandem mass spectra were obtained in manual mode for targeted masses using an isolation width of 2.0, fragmentation amplitude of 2.2 and threshold set at 6,000.
# To determine the regio-specificity of methylation, reaction products were subjected to HPLC separation and identified by comparison to available standards, or subjected to tandem MS analysis (FIGS. 10-13; Table 4)
# [5] = Specific activity of the purified IOMTs with the most converted substrate; type: biochemical; conditions: 50 μM S-adenosyl methionine, 100 μM acceptor substrate
# Description: as §3
Compound,"Relative activity, MtIOMT5 ([1]; 50 μM S-adenosyl methionine, 100 μM acceptor substrate, most converted substrate = 100%)","Position of methylation / reaction products, MtIOMT5 [1]","Relative activity, MtIOMT7 [2]","Enantiomer methylated, MtIOMT5 ([1]; chiral HPLC of unreacted substrate)",Activity of MsI7OMT with 4′-methoxyisoflavones (in words) [3],% 4′-Methylated [4],% 7-Methylated [4],% Dimethylated [4],Ratio 4′/7-methylated [4],Specific activity at 100% [5]
"O=C1c2ccc(O)cc2OC(O)C1c1ccc(O)cc1 (stereo not drawn) [2,7,4′-trihydroxyisoflavanone]",100%,exclusively methylated on the 4′-position,24.8%,,,,,,,
O=C1C[C@@H](c2ccc(O)cc2)Oc2cc(O)ccc21 [Liquiritigenin],,methylated on the 4′-positions,,preferentially methylates the (2R)-enantiomer,,,,,,
COc1ccc(-c2coc3cc(O)cc(O)c3c2=O)cc1 [biochanin A],,,,,little activity,,,,,
"MtIOMT1: M. truncatula isoflavonoid O-methyltransferase, His-tagged, expressed in E. coli; GenBank AY942159 (TYVGGDMFTSIPNADAVLLKYILHNWTDKDCTRILKKCKE; cysteine pairing not given here; also: His-tagged; listed as Medicago truncatula)",,,,,,0%,>99%,<1%,0,3646.7 pkat/mg
"MtIOMT2: M. truncatula isoflavonoid O-methyltransferase, His-tagged, expressed in E. coli; GenBank DQ419910 (NFVGGDMFKSVPSADAVLLKWVLHDWNDELCLKILKNCKE; His tag; listed as Medicago truncatula)",,,,,,33%,66%,<1%,0.5,930.2 pkat/mg
"MtIOMT3: M. truncatula isoflavonoid O-methyltransferase, His-tagged, expressed in E. coli; GenBank DQ419911 (TYVGGDMFISVPKADAVLLKAVLHDWTDKDCIKILKKCKE; cysteine pairing not given here; also: His-tagged; listed as Medicago truncatula)",,,,,,92%,8%,0%,11.4,7.4 pkat/mg
